Data from patent US20090306137A1, “TREATMENT FOR DEPRESSIVE DISORDERS” (priority 2006, published 2009).
“And” between values parts separate entries of the source, which are not always exact repeats. Equal entries are not always repeated.

What was measured:
Nea1 = assay: receptor affinity; format: binding; details: high affinity
[1] = tested on: selected dopaminergic, serotoninergic, and adrenergic receptors; assay: functional action at receptors; format: biochemical
[2] = biological target: other dopaminergic, adrenergic, and serotoninergic receptors; assay: receptor affinity; format: binding; details: moderate affinity
5-HT1A = biological target: T1, 5-HT1A (Homo sapiens, UniProt P08908); assay: receptor affinity; format: binding; details: listed both as high and as moderate affinity
T1 sequence (P08908 1-422): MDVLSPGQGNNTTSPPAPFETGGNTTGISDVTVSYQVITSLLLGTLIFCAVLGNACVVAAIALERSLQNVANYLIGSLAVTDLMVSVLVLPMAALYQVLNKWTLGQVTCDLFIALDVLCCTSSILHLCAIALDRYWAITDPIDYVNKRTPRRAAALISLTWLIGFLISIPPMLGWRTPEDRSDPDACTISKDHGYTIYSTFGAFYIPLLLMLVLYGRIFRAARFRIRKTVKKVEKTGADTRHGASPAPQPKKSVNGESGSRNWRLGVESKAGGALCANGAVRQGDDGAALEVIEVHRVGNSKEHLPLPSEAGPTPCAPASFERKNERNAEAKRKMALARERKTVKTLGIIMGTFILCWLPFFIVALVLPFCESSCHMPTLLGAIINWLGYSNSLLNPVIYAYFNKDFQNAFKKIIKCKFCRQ

Nea2c = biological target: T2, Nea2c (Homo sapiens, UniProt P18825); assay: receptor affinity; format: binding; details: high affinity
T2 sequence (P18825 1-462): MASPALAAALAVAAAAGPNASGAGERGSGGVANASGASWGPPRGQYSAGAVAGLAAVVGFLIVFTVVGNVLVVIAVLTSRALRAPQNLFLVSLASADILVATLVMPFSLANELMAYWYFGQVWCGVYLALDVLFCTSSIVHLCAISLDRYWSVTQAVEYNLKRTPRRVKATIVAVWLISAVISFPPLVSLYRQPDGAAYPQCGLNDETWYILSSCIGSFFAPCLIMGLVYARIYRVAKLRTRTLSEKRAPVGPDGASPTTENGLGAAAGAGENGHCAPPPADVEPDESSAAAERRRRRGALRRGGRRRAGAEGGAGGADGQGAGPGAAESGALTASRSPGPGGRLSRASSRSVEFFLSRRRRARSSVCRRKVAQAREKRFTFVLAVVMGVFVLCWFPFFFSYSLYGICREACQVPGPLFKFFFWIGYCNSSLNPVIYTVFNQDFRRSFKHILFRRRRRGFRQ

D3 = D3 (Homo sapiens, UniProt P35462); assay: receptor affinity; format: binding; details: high affinity
Chain of D3 (P35462 whole entry): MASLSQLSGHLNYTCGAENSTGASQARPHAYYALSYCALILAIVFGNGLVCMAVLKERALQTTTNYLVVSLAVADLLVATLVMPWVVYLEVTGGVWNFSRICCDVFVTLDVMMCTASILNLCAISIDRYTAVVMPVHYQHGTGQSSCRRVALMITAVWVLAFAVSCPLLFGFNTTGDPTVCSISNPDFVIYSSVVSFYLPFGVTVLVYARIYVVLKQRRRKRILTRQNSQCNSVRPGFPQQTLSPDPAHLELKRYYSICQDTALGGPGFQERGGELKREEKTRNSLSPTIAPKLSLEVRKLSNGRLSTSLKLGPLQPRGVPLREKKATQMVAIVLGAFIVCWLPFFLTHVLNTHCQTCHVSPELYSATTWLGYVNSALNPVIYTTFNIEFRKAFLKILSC

Compound: COc1cc(C(C)=O)ccc1OCCCN1CCC(c2noc3cc(F)ccc23)CC1 [Iloperidone, 1-[4-[3-[4-(6-flouro-1,2-benzisoxazol-3-yl)-1-piperidinyl]propoxy]-3-methoxyphenyl]ethanone]
- Kd (Nea1): < 0.01 µM
- mode of action at receptors [1]: antagonist
- Kd [2]: 0.01 to 0.1 µM
- Kd (5-HT1A): < 0.01 µM and 0.01 to 0.1 µM
- Kd (Nea2c): < 0.01 µM
- Kd (D3): < 0.01 µM
